Measurements taken from patent publication US20070185020A1, “Methods and compositions for treating disorders of the extracellular matrix” (priority 2003, published 2007).

Key:
CDA1 [1] = experiment: CDA1 expression in kidney after angiotensin II infusion (immunohistochemistry); assay type: in vivo, rat
Protocol: Ang II was continuously infused into rats by subcutaneously inserted minipump for 3 days or 14 days at both pressor (60 ng/min) and non-pressor doses (6 ng/min) in eight week old male Sprague Dawley (SD) rats (Cao et al Z; The angiotensin type 2 receptor is expressed in adult rat kidney and promotes cellular proliferation and apoptosis. Kidney int. 2000; 58:2437-2451).
CDA1 staining was performed using a rabbit antihuman CDA1 serum (Chai et al, 2001) in paraffin embedded sections. In brief, following dewaxing, paraffin embedded sections were treated in a microwave oven at low power for 10 minutes in 10 mmol/L sodium citrate buffer (pH 6.0). Endogenous peroxidase was inactivated using 3% hydrogen peroxide (H2O2) in methanol for 20 minutes. The sections were blocked with protein block agent for 20 minutes. The sections were incubated with rabbit antihuman CDA1 serum for 2 hour at room temperature. Biotinylated goat anti-rabbit immunogloblulin (DAKO A/S) was used as a second antibody, followed by avidin biotin horseradish peroxidase complex (ABC Elite kit, Victor Laboratories, Burlingame, Calif.). Detection was accomplished by reaction with 3,3′-diaminobenzidine tetrahydrochloride (DAB, Sigma Chemical Co., St Louis, Mo.) (Cao Z et al. The angiotensin type 2 receptor is expressed in adult rat kidney and promotes cellular proliferation and apoptosis. Kidney Int. 2000; 58:2437-2451.

CDA1 [2] = experiment: CDA1 expression and fibrosis in the remnant kidney following subtotal nephrectomy (STNx); assay type: in vivo, rat; conditions: preliminary data
Protocol: Subtotal nephrectomy (STNx) were performed by right nephrectomy, followed by infarction of approximately two-thirds of the left kidney with selective ligation of all but one extrarenal branch of the left renal artery (CIA40). Anaesthesia was achieved by intraperitoneal injection of pentobarbitone sodium (60 mg/kg). Sham operated rats were used as controls. After operation, the animals were sacrificed at 1, 2, 4, 8 and 12 week and tissue collected for assessment of CDA1 expression and fibrotic growth factors as well as matrix proteins. CDA1 staining was performed using a rabbit antihuman CDA1 serum (Chai et al, 2001) in paraffin embedded sections. In brief, following dewaxing, paraffin embedded sections were treated in a microwave oven at low power for 10 minutes in 10 mmol/L sodium citrate buffer (pH 6.0). Endogenous peroxidase was inactivated using 3% hydrogen peroxide (H2O2) in methanol for 20 minutes. The sections were blocked with protein block agent for 20 minutes. The sections were incubated with rabbit antihuman CDA1 serum for 2 hour at room temperature. Biotinylated goat anti-rabbit immunogloblulin (DAKO A/S) was used as a second antibody, followed by avidin biotin horseradish peroxidase complex (ABC Elite kit, Victor Laboratories, Burlingame, Calif.). […]

CDA1 [3] = conditions: in vitro; reported by other workers; cited from earlier work

Which “CDA1 expression after angiotensin II infusion” value (CDA1 [1]; immunohistochemical staining, proximal tubules, subcutaneous minipump infusion in Sprague Dawley rats) does the source give for “angiotensin II (DRVYIHPF; Angiotensin-2; UniProt P01015 25-32, looked up) [Ang II, peptide hormone infused into rats by minipump to stimulate CDA1 expression]” here?
The value was “increased CDA1 expression”.

For `CCCCC(=O)N(Cc1ccc(-c2ccccc2-c2nnn[nH]2)cc1)[C@H](C(=O)O)C(C)C` [valsartan], which “Effect on increased CDA1 expression following Ang II infusion” value (CDA1 [1]; treatment with AT1 receptor antagonist, data not shown) is on record?
Its value is “prevented”.

And the “Effect on cell injury in remnant kidney” value (CDA1 [2])?
Its value is “less cell injury”.

And the “Effect on CDA1 expression in remnant kidney” value (CDA1 [2]; FIG. 3B)?
Its value is “attenuation of CDA1 expression”.

For “TGF β1: growth factor; CDA1 described as a TGF β1 target gene”, which CDA1 expression (CDA1 [3]) is on record?
Its CDA1 expression is “increased”.
